These results are taken from publication PMC2765639 (PLoS Neglected Tropical Diseases, 2009).

Assay [1] relates to L. major promastigotes. Nature of the assay: L. major promastigote drug susceptibility assay (alamar blue, 384-well). It is filed as cell-based, Leishmania major. The following applies: Leishmania major. In outline: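 Exponential-phase promastigotes (5,000/well) were exposed to compound for 44 h at 28°C with 5% CO2. Single-point screening used 10 µM in 1% DMSO, and duplicate 10-point curves spanned 0.01–5.00 µM.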

Assay [2] concerns L. major axenic amastigote-like population. Nature of the assay: L. major axenic amastigote-like alamar blue assay (pH 4.9). The format is cell-based, Leishmania major. Particulars: for EC50: Leishmania major.
For assay [3], the system named is A549. Nature of the assay: Mammalian cell line specificity assay (alamar blue). It is filed as cell-based, human. The following applies: Homo sapiens. In outline: (§1)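 Cells exposed to compounds for 44–46 h at 37°C, 5% CO2, in 384-well format; 1% DMSO vehicle, 10% DMSO positive control (final). Growth inhibition read after 2–4 h with alamar blue.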
Assay [4] concerns HeLa. The description is as above. It is filed as cell-based, human. Particulars: Homo sapiens, HeLa, read-out: HeLa EC50 (AVE±SD). In outline:
as §1

Assay [5] relates to IMR-90. The assay is described as above. It is filed as cell-based, human. The following applies: Homo sapiens. In outline: as §1
For assay [6], the system named is MDA-MB-231. The assay is described as above. It is filed as cell-based, human. The following applies: Homo sapiens. In outline: as §1
Assay [7] concerns PC-3. Described as above. The format is cell-based, human. Particulars: Homo sapiens. The method in brief: as §1
In assay [8] the test system is human cell lines. The assay is described as follows: Human cell line panel (A549, HeLa, IMR-90, PC-3, MDA-MB-231). It is filed as cell-based. How it is done: Mammalian cells were cultured and maintained according to ATCC specifications (ATCC, Manassas, VA). Cell line drug susceptibility assays were performed in final volumes of 25 µL using our previously described 384-well microtiter plate format,[39]. Briefly, for automated HTS procedures, cells (A549, IMR-90 and, HeLa, 1,000 cells; PC-3, 750 cells and; MDA-MB-231, 3,000 cells) in complete culture medium were seeded into each well of 384-well microtiter plates using a Titertek MAPC-2 bulk dispenser. Test and control compounds were added to individual wells as described above. Vehicle and positive controls were 1% DMSO and 10% DMSO, respectively (final well concentrations). Assay plates were incubated for 44–46 h at 37°C in the presence of 5% CO2 and growth inhibitory effects were determined as described above. Five µL of alamar blue reagent was added to each well and incubated for 2–4 h. Data were captured as described above.

Assay [9] relates to L. major promastigotes. The assay is described as follows: Flow cytometer-based growth inhibition and cytotoxicity assay. The following applies: Leishmania major, 48 h, read-out: L. major promastigote EC50 (AVE±SD) Confirmation Flow Cytometry.
The subject of assay [10] is L. major. Nature of the assay: In vivo murine CL efficacy study (footpad lesion model). Particulars: for decrease in footpad thickness: 40 mg/kg; for reduction in footpad thickness: 160 mg/kg, vs vehicle. Also noted: species or system Balb/c mice. How it is done:
Adult female Balb/c mice (6 to 10 week old) were obtained from (Charles River Laboratories, Wilmington, MA) and maintained as outlined by the National Institutes of Health Guide for the Care and Use of Laboratory Animals. All in vivo studies were carried out in accordance with protocols approved by the Institutional Animal Care and Use Committee (IACUC) at the University of Miami (IACUC number C01-08). Food and water were supplied ad libitum. […] Animals were examined daily to determine lesion development. […] Control mice were injected with an equivalent amount of vehicle control or amphotericin B (12.5 mg/kg). […] Mice were euthanized in a CO2 chamber at day 21.

Setting [11] is: 48 h, compounds from commercial supplier, 44 h + 4 h alamar blue, 28°C, read-out: L. major promastigote EC50 (AVE±SD) Confirmation Alamar Blue.
[12] abbreviates: Table S1, PMLSC library samples, 10-point 0.01–5.00 µM, read-out: EC50 Ave ± SD, Lm.
[13] abbreviates: pH 4.9, 144 h, 32°C, read-out: L. major axenic amastigote-like EC50 (AVE±SD) Confirmation Alamar Blue.
The mark [14] stands for this setting: A549, 44–46 h, alamar blue, read-out: A549 EC50 (AVE±SD).
Where [15] appears, read: A549, Table S1, PMLSC library samples, read-out: EC50 Ave ± SD, A549.
The mark [16] stands for this setting: IMR-90, 44–46 h, alamar blue, read-out: IMR90 EC50 (AVE±SD).
[17] abbreviates: MDA-MB-231, 44–46 h, alamar blue, read-out: MDA EC50 (AVE±SD).
Setting [18] is: PC-3, 44–46 h, alamar blue, read-out: PC-3 EC50 (AVE±SD).

The structures appear in SMILES notation. Where two headings read alike, the source gives them in different places.

With `N[C@H](C(=O)O)[C@@H]1CC(Cl)=NO1` [Acivicin, reference compound], the EC50 in assay [1] (setting [11]) was 6 ± 1 nM; in assay [1] (setting [12]) it was 177 ± 3 nM; in assay [2] (setting [13]) it was 1100 ± 60 nM; in assay [3] (setting [14]), 4400 ± 400 nM; in assay [3] (setting [15]) it was greater than 5000 nM; in [4] (44–46 h, alamar blue) it was 3900 ± 3000 nM. Moreover, the EC50 in [5] (setting [16]) was 6700 ± 400 nM; in assay [6] (setting [17]), greater than 50000 nM; in assay [7] (setting [18]), greater than 50000 nM; in [9], 40 ± 10 nM. In addition, in assay [8], the “growth inhibition of human cell lines tested” value was “inhibited the growth of human cell lines tested”.
On to `C[C@@H]1[C@H](O)[C@@H](C)/C=C/C=C/C=C/C=C/C=C/C=C/C=C/[C@H](O[C@@H]2O[C@H](C)[C@@H](O)[C@H](N)[C@@H]2O)C[C@@H]2O[C@](O)(C[C@@H](O)C[C@@H](O)[C@H](O)CC[C@@H](O)C[C@@H](O)CC(=O)O[C@H]1C)C[C@H](O)[C@H]2C(=O)O` [Amphotericin B, reference compound], for which the EC50 was 210 ± 10 nM in assay [1] (setting [11]); 207 ± 11 nM in assay [1] (assay optimization, read-out: EC50, L. major promastigotes, 384-well format); 380 ± 10 nM in assay [2] (setting [13]); greater than 50000 nM in [3] (setting [14]); greater than 50000 nM in assay [4] (44–46 h, alamar blue); 8700 ± 2400 nM in [5] (setting [16]). Moreover, the EC50 in assay [6] (setting [17]) is greater than 50000 nM; in [7] (setting [18]) it was greater than 50000 nM; in assay [9] it was 190 ± 60 nM. Besides, the “reduction in footpad swelling (in vivo effects, summary)” value in assay [10] (summary statement in results/discussion) was 85–90%.
In the case of `CCN(CC)C(=S)SSC(=S)N(CC)CC` [Disulfiram], the EC50 in assay [1] (setting [11]) was 500 ± 50 nM; in assay [1] (setting [12]) it was 263 ± 20 nM; in assay [2] (setting [13]), 130 ± 10 nM; in assay [3] (setting [14]) it was greater than 50000 nM; in assay [3] (setting [15]) it was 2160 ± 1220 nM; in assay [4] (44–46 h, alamar blue), greater than 50000 nM. For the same compound, the EC50 in [5] (setting [16]) is greater than 50000 nM; in assay [6] (setting [17]), greater than 50000 nM; in assay [7] (setting [18]), greater than 50000 nM; in assay [9] it was 190 ± 60 nM. The “growth inhibitory activity in axenic amastigote-like assay” value in assay [2] (pH 4.9) was “comparable to amphotericin B”. The results for the “decrease in footpad thickness” value in assay [10] (day 14) and in [10] (day 21) were 25% and 35%, respectively. Also, the figures for the “reduction in footpad thickness” value in assay [10] (day 14 post-infection) and in [10] (day 21 post-infection) were roughly 43% and 50%, respectively.
`NC(=O)c1cn([C@@H]2O[C@H](CO)[C@@H](O)[C@H]2O)c2ncnc(N)c12` [Sangivamycin, reference compound]: the concentration giving a half-maximal response (EC50) in assay [1] (read-out: EC50 Ave ± SD, Lm) was 164 ± 11 nM; in assay [2] (144 h, pH 4.9, read-out: L. major axenic amastigote-like EC50 (AVE±SD) Confirmation Alamar Blue), 4300 ± 300 nM; in [3] (A549, read-out: A549 EC50 (AVE±SD)) it was 70 ± 20 nM; in assay [3] (A549, read-out: EC50 Ave ± SD, A549), 72 ± 5 nM; in [4] it was greater than 50000 nM; in assay [5] (IMR-90, read-out: IMR90 EC50 (AVE±SD)), greater than 50000 nM. The EC50 in assay [6] (MDA-MB-231, read-out: MDA EC50 (AVE±SD)) was greater than 50000 nM; in [7] (PC-3, read-out: PC-3 EC50 (AVE±SD)), greater than 50000 nM; in [9] it was 140 ± 20 nM. In addition, in [8], the “growth inhibition of human cell lines tested” value is on record as “inhibited the growth of human cell lines tested”.
